Key:
Type in all cases: in vivo
[1] = system: Echinochloa crus-galli (ECHCG); test: Test Example B, pre-emergence herbicidal test; details: 312 h, evaluated after 13 days, 100=total damage to plant, 0=no damage to plant
Procedure: (§1) Seeds of a variety of test species were sown in standard soil in pots. After cultivation for one day (pre-emergence) or after 8 days cultivation (post-emergence) under controlled conditions in a glasshouse (at 24/16° C., day/night; 14 hours light; 65% humidity), the plants were sprayed with an aqueous spray solution derived from the formulation of the technical active ingredient in acetone/water (50:50) solution containing 0.5% Tween 20 (polyoxyethelyene sorbitan monolaurate, CAS RN 9005-64-5). The test plants were then grown in a glasshouse under controlled conditions in a glasshouse (at 24/16° C., day/night; 14 hours light; 65% humidity) and watered twice daily. After 13 days for pre and post-emergence, the test was evaluated (100=total damage to plant; 0=no damage to plant). Test Plants: Setaria faberi (SETFA), Alopecurus myosuroides (ALOMY), Echinochloa crus-galli (ECHCG), and Avena fatua (AVEFA).

Setaria faberi (SETFA) [2] = test: Test Example B, pre-emergence herbicidal test; details: 250 g/ha, evaluated after 13 days, 100=total damage to plant, 0=no damage to plant
Procedure: as §1

Avena fatua (AVEFA) [3] = test: Test Example B, pre-emergence herbicidal test; details: 312 h, evaluated after 13 days, 100=total damage to plant, 0=no damage to plant
Procedure: as §1

[4] = system: Alopecurus myosuroides (ALOMY); test: Test Example B, pre-emergence herbicidal test; details: 312 h, evaluated after 13 days, 100=total damage to plant, 0=no damage to plant
Procedure: as §1

[5] = system: Echinochloa crus-galli (ECHCG); test: Test Example B, post-emergence herbicidal test; details: 312 h, evaluated after 13 days, 100=total damage to plant, 0=no damage to plant
Procedure: as §1

Setaria faberi (SETFA) [6] = test: Test Example B, post-emergence herbicidal test; details: 250 g/ha, evaluated after 13 days, 100=total damage to plant, 0=no damage to plant
Procedure: as §1

Avena fatua (AVEFA) [7] = test: Test Example B, post-emergence herbicidal test; details: 312 h, evaluated after 13 days, 100=total damage to plant, 0=no damage to plant
Procedure: as §1

[8] = system: Alopecurus myosuroides (ALOMY); test: Test Example B, post-emergence herbicidal test; details: 312 h, evaluated after 13 days, 100=total damage to plant, 0=no damage to plant
Procedure: as §1

[9] = system: Echinochloa crus-galli (ECHCG); test: Test Example 1, post-emergence herbicidal test; details: 360 h, evaluated 15 days later, 100=total damage to plant, 0=no damage to plant
Procedure: (§2) Monocotyledonous and dicotyledonous test plants were sown in standard soil in pots. After cultivation for one day (pre-emergence) or after 10 days cultivation (post-emergence) under controlled conditions in a glasshouse, the plants were sprayed with an aqueous spray solution derived from the formulation of the technical active ingredient in 0.6 ml acetone and 45 ml formulation solution containing 10.6% Emulsogen EL (Registry number 61791-12-6), 42.2% N-methylpyrrolidone, 42.2% dipropylene glycol monomethyl ether (Registry number 34590-94-8) and 0.2% X-77 (Registry number 11097-66-8). The test plants were then grown in a greenhouse under optimum conditions until, 15 days later for post-emergence and 20 days for pre-emergence, the test was evaluated (100=total damage to plant; 0=no damage to plant). Test Plants: Lolium perenne (LOLPE), Setaria faberi (SETFA), Digitaria sanguinalis (DIGSA), Alopecurus myosuroides (ALOMY), Echinochloa crus-galli (ECHCG) and Avena fatua (AVEFA), Post-Emergence Data: […]

Setaria faberi (SETFA) [10] = test: Test Example 1, post-emergence herbicidal test; details: 360 h, evaluated 15 days later, 100=total damage to plant, 0=no damage to plant, read-out: SEFTA damage to plant
Procedure: as §2

Avena fatua (AVEFA) [11] = test: Test Example 1, post-emergence herbicidal test; details: 360 h, evaluated 15 days later, 100=total damage to plant, 0=no damage to plant
Procedure: as §2

[12] = system: Alopecurus myosuroides (ALOMY); test: Test Example 1, post-emergence herbicidal test; details: 360 h, evaluated 15 days later, 100=total damage to plant, 0=no damage to plant
Procedure: as §2

Lolium perenne (LOLPE) [13] = test: Test Example 1, post-emergence herbicidal test; details: 360 h, evaluated 15 days later, 100=total damage to plant, 0=no damage to plant
Procedure: as §2

[14] = system: Digitaria sanguinalis (DIGSA); test: Test Example 1, post-emergence herbicidal test; details: 360 h, evaluated 15 days later, 100=total damage to plant, 0=no damage to plant
Procedure: as §2

[15] = system: Echinochloa crus-galli (ECHCG); test: Test Example 1, pre-emergence herbicidal test; details: 480 h, evaluated 20 days later, 100=total damage to plant, 0=no damage to plant
Procedure: as §2, with “Pre-Emergence” for “Post-Emergence”

Setaria faberi (SETFA) [16] = test: Test Example 1, pre-emergence herbicidal test; details: 480 h, evaluated 20 days later, 100=total damage to plant, 0=no damage to plant, read-out: SEFTA damage to plant
Procedure: as §2, with “Pre-Emergence” for “Post-Emergence”

Avena fatua (AVEFA) [17] = test: Test Example 1, pre-emergence herbicidal test; details: 480 h, evaluated 20 days later, 100=total damage to plant, 0=no damage to plant
Procedure: as §2, with “Pre-Emergence” for “Post-Emergence”

[18] = system: Alopecurus myosuroides (ALOMY); test: Test Example 1, pre-emergence herbicidal test; details: 480 h, evaluated 20 days later, 100=total damage to plant, 0=no damage to plant
Procedure: as §2, with “Pre-Emergence” for “Post-Emergence”

Lolium perenne (LOLPE) [19] = test: Test Example 1, pre-emergence herbicidal test; details: 480 h, evaluated 20 days later, 100=total damage to plant, 0=no damage to plant
Procedure: as §2, with “Pre-Emergence” for “Post-Emergence”

[20] = system: Digitaria sanguinalis (DIGSA); test: Test Example 1, pre-emergence herbicidal test; details: 480 h, evaluated 20 days later, 100=total damage to plant, 0=no damage to plant
Procedure: as §2, with “Pre-Emergence” for “Post-Emergence”

SMILES | pest or weed control at 250 g/ha [1] [%] | SETFA damage to plant (Setaria faberi (SETFA) [2]) | pest or weed control at 250 g/ha (Avena fatua (AVEFA) [3]) [%] | pest or weed control at 250 g/ha [4] [%] | pest or weed control at 250 g/ha [5] [%] | SETFA damage to plant (Setaria faberi (SETFA) [6]) | pest or weed control at 250 g/ha (Avena fatua (AVEFA) [7]) [%] | pest or weed control at 250 g/ha [8] [%] | pest or weed control at 125 g/ha [9] [%] | pest or weed control at 125 g/ha (Setaria faberi (SETFA) [10]) [%] | pest or weed control at 125 g/ha (Avena fatua (AVEFA) [11]) [%] | pest or weed control at 125 g/ha [12] [%] | pest or weed control at 125 g/ha (Lolium perenne (LOLPE) [13]) [%] | pest or weed control at 125 g/ha [14] [%] | pest or weed control at 250 g/ha [15] [%] | pest or weed control at 250 g/ha (Setaria faberi (SETFA) [16]) [%] | pest or weed control at 250 g/ha (Avena fatua (AVEFA) [17]) [%] | pest or weed control at 250 g/ha [18] [%] | pest or weed control at 250 g/ha (Lolium perenne (LOLPE) [19]) [%] | pest or weed control at 250 g/ha [20] [%]
CCc1ccc(-c2ccc(Cl)cc2)cc1C1=C(O)[C@H]2[C@@H]3CC[C@@H](C(=O)C3)[C@H]2C1=O (racemic) [Compound T7, rac-(3aS,4R,7R,7aR)-2-(4′-chloro-4-ethylbiphenyl-3-yl)hexahydro-4,7-ethanoindene-1,3,8-trione] | 100 | 90 | 70 | 90 | 20 | 60 | 20 | 20 | – | – | – | – | – | – | – | – | – | – | – | –
CCc1ccc(-c2ccc(Cl)cc2)cc1C1=C(O)[C@H]2[C@@H]3CC[C@@H](C(=NOC)C3)[C@H]2C1=O (racemic) [Compound T9, rac-(3aS,4R,7R,7aR)-2-(4′-chloro-4-ethylbiphenyl-3-yl)hexahydro-4,7-ethanoindene-1,3,8-trione 8-(O-methyloxime)] | 0 | 0 | 0 | 0 | 90 | 100 | 60 | 70 | – | – | – | – | – | – | – | – | – | – | – | –
CCc1cc(C)cc(CC)c1C1=C(O)[C@H]2[C@@H]3CC[C@@H](C(=O)C3)[C@H]2C1=O [Compound T54] | – | – | – | – | – | – | – | – | 80 | 80 | 60 | 60 | 50 | 80 | 70 | 80 | 70 | 70 | 90 | 80
CO/N=C1/C[C@H]2CC[C@@H]1[C@H]1C(=O)C(c3c(C)cc(C)cc3C)=C(O)[C@@H]21 [Compound T59] | 80 | 80 | 30 | 90 | 50 | 80 | 0 | 30 | – | – | – | – | – | – | – | – | – | – | – | –
CCc1cc(C)cc(CC)c1C1=C(O)[C@H]2[C@H]3CC[C@H](CC3)[C@H]2C1=O (racemic) [Compound T48, rac-(7R,8S)-2-(2,6-diethyl-4-methylphenyl)hexahydro-4,7-ethanoindene-1,3-dione] | – | – | – | – | – | – | – | – | 90 | 80 | 70 | 80 | 100 | 100 | 100 | 100 | 70 | 100 | 100 | 100
CCc1cc(C)cc(CC)c1C1=C(O)[C@H]2[C@H]3C=C[C@](OC)(CC3)[C@H]2C1=O [Compound T55] | – | – | – | – | – | – | – | – | 100 | 90 | 80 | 80 | 70 | 80 | 100 | 100 | 70 | 100 | 100 | 100
Cc1cc(-c2ccccc2)cc(C)c1C1=C(O)[C@@H]2[C@H](C1=O)[C@@H]1C=C[C@H]2CC1 (racemic) [Compound T56, endo-(3aR,4S,7R,7aS)-2-(3,5-dimethylbiphenyl-4-yl)-3a,4,7,7a-tetrahydro-4,7-ethanoindene-1,3-dione] | 100 | 100 | 20 | 100 | 100 | 100 | 60 | 60 | – | – | – | – | – | – | – | – | – | – | – | –
CCc1cc(C)cc(CC)c1C1=C(O)[C@H]2[C@H]3CC[C@H](C3)[C@H]2C1=O [Compound T49] | – | – | – | – | – | – | – | – | 100 | 100 | 80 | 100 | 100 | 100 | 100 | 100 | 70 | 100 | 100 | 100
CCc1cc(C)cc(CC)c1C1=C(O)[C@H]2[C@H]3CC[C@](OC)(CC3)[C@H]2C1=O [Compound T57] | 100 | 100 | 100 | 100 | 100 | 100 | 30 | 70 | – | – | – | – | – | – | – | – | – | – | – | –
Cc1cc(C)c(C2=C(O)[C@@H]3[C@H](C2=O)[C@@H]2C=C[C@H]3CC2)c(C)c1 [Compound T53] | – | – | – | – | – | – | – | – | 60 | 20 | 0 | 20 | 30 | 50 | 70 | 100 | 40 | 70 | 100 | 80

Reference: US20120065066A1, “NOVEL HERBICIDES” (SYNGENTA CROP PROTECTION LLC, priority 2009, published 2012)
